Measurements published in patent publication US7022484B2, “Methods for treating neuropathological states and neurogenic inflammatory states and methods for identifying compounds useful therein” (Board of Regents, The University of Texas System, priority 2000, dated 2006).

What was measured:
NMDA currents = settings: patch clamp studies; cited from earlier work
[1] = test system: protein tyrosine kinase (PTK); settings: cited from earlier work
rat arthritis model = assay: Paw withdrawal latency (PWL) to radiant heat in rat kaolin/carrageenan knee joint inflammation model; type: in vivo; settings: spinal microdialysis pre-treatment; 4 hours after induction of arthritis
Method: All studies followed the guidelines of the Institute Animal Care and Use Committee, in accordance with the guidelines of the National Institutes of Health. All animals were hosted in a room with a constant ambient temperature of 22° C. and 12 hour light/dark cycle with free access to food and water. Eighty-five Sprague-Dawley rats (250–300 grams) total were used in experiments conducted for biochemical, behavioral, and immunocytochemistry studies. […] On Day 2 baseline behavioral testing was followed by infusion of agents for 1.5 hours (pretreatment) prior to induction of knee joint inflammation under brief anesthesia. Behavioral testing was repeated 4 hours after induction of joint inflammation. Anesthetized animals were either transcardially perfused with aldehydes for immunohistochemical studies or fresh, frozen tissues collected for biochemical studies.
A microdialysis fiber was implanted into the spinal dorsal horn of anesthetized rats (sodium pentobarbital, 50 mg/kg) one day prior to the induction of arthritis according to the procedure of Skilling et al. (J. Neurochem., 51:127–132 (1988)), as described in Sluka et al. (Neurosci. Lett., 145:141–144 (1992)). Briefly, a small midline incision was made in the skin over the T12 vertebral level. The vertebrae were cleared of muscle and two 1 millimeter (mm) holes were drilled in the lateral aspect of both sides of the T12 vertebrae to expose the L4 spinal segment. A microdialysis fiber ([…], 45,000 MW cut-off, Hospal, AN69, Hospal Industrie, Meyzieu, France), was passed transversely across the deep dorsal horn and stabilized with dental cement. The microdialysis fiber was then passed through the holes in the vertebrae and transversely through the dorsal horn of the spinal cord. A 2 mm section of the microdialysis fiber lies in the dorsal horn at the level of L3–4 segment. The tubing was coated with epoxy except for a permeable portion passing through the spinal grey matter. The microdialysis fiber was connected to PE20 tubing (Becton Dickinson and Company, San Mateo, Calif.) which was tunneled under the skin to the nape of the neck. Alternatively as a systemic control for drug administration, the microdialysis fiber was implanted only in the subcutaneous tissue over the back muscle and tunneled to the neck. Artificial cerebrospinal fluid (aCSF) was made as described by Sorkin et al. (J. Neurosci. Methods, 23, 131–138 (1988)) and was infused (5 microliters/minute) for 1.5 hours and then the tube was heat-sealed for use on the following day.
Dose response curves were generated for Genistein with animals receiving Genistein spinally at concentration of 0.2 mM (n=3), 0.5 mM (n=3), 1 mM (n=9), and 2 mM (n=3). Animals received Lavendustin A or B spinally at concentrations of 0.1 mM (n=3), 0.5 mM (n=3), and 1 mM (n=5) as a positive and negative control for Genistein. […] Daidzein was tested at a dose of 1 mM (n=3). […] Eight additional animals received the vehicle, 50% DMSO in aCSF, as a control.
An acute inflammatory response restricted to the knee joint can be induced by the injection of 3% kaolin and 3% carrageenan (in sterile saline; 0.1 ml; pH 7.4) into the joint cavity while the animal is briefly anesthetized with sodium methohexital (Brevital, 60 mg/kg, i.p.). Kaolin and carrageenan were obtained from Fisher Scientific, St. Louis, Mo. The knee joint is flexed manually until the rat awakes (approximately 5–10 minutes). In this arthritis model in the awake rat, localized joint swelling, as well as limping and guarding of the limb, are well developed at 4 hours (Sluka et al., Pain, 59, 95–100 (1994)) when behavioral testing begins.
Fifty-five rats were used for behavioral studies. Four hours after induction of the arthritis, the joint is swollen and increased withdrawal responses to radiant heat and spontaneous guarding of the limb were noted. The increased responsiveness to noxious stimuli indicates the presence of secondary hyperalgesia. […]

NR1 subunit [2] = assay: Immunocytochemistry of NR1 translocation in synovial clonal line SW982; type: cell-based, human; settings: synovial clonal cell model
Method: (§1) The cultured cell lines used in these studies were the human neuroblastoma clonal line, SHSY5Y, and the human synovial sarcoma clonal line, SW982, both available through the American Tissue Type Culture Collection (item number CRL 2266 and HTB-93, respectively). Cells were grown in Dulbecco's Modification of Eagles Medium (DMEM) without L-glutamine, with 4.5 grams/Liter glucose, and with 10% bovine fetal serum in a tissue culture incubator at 37° C. in a gaseous mixture of O2/CO2. Cells were routinely split as necessary to maintain proper cell density. Cells were removed from plates by adding TRYPSIN/EDTA in Hank's Balanced Salt solution. After cell counts, approximately 10,000 cells were plated per well in a culture dish. For experiments, the cells were plated into 35 mm Petri dishes or 6- or 24-well plates as needed.
For immunocytochemistry experiments and some western blot experiments, SW982 cells were exposed to glutamate (1 μM to 10 μM), or glutamate analog NMDA (or related glutamate compound)(5 μM) and Genistein (10 mM). At various timepoints of exposure, including 4, 12, and 24 hours, cells were collected for Western blot measurement of NR1 or fixed with aldehydes and stained to visualize the location of glutamate receptor subunit NR1 using a specific antibody directed to either the C-terminus or the N-terminus of the NR1 protein. […]

NR1 subunit [3] = assay: Western blot of NR1 in cytosolic and nuclear extracts of SW982 cells; type: cell-based, human; settings: 12 hours, increasing concentrations of NMDA
Method: as §1, with “needed. […]” for “needed.”
Western blot analysis was used to measure NR1 in both nuclear and cytosolic or total protein extracts using established methods (Kaufmann et al., J. Neurochem., 76, 1099–1108 (2001)). […] After three washes with Tris-buffered saline, immunoreactive bands were detected by a chemiluminescent Western blot detection kit (Amersham, Buckingamshire, UK, Catalog Number RPN2106) according to the manufacturer's instructions.

NR1 subunit [4] = assay: Immunocytochemistry of NR1 translocation in neuroblastoma clonal line SHSY5Y; type: cell-based, human; settings: neuroblastoma clonal cell model

Row | Structure (SMILES) | effect on NMDA currents (NMDA currents) | PTK inhibitory activity [1] | development of secondary hyperalgesia (rat arthritis model) | NR translocation to the nucleus (NR1 subunit [2]) | NR1 in the cytosol (NR1 subunit [3]) | NR1 in the nuclear compartment (NR1 subunit [3]) | NR translocation to the nucleus (NR1 subunit [4])
1 | O=c1c(-c2ccc(O)cc2)coc2cc(O)ccc12 [Daidzein] | has no effect on NMDA currents | lacks PTK inhibitory activity | ineffective in altering the nociceptive outcome of knee joint inflammation |  |  |  | 
2 | CN[C@H](CC(=O)O)C(=O)O [NMDA, N-methyl-D-aspartate] |  |  |  | replicated the visualization of NR translocation to the nucleus | dose-dependent reduction of NR1 in the cytosol | appearance of NR1 in the nuclear compartment | replicated the visualization of NR translocation to the nucleus
